Patent US4537895A, “Isoquinoline derivatives” (EGYT Gyogyszervegyeszeti Gyar, priority 1982, dated 1985)
“And” between values parts separate entries of the source, which are not always exact repeats. Equal entries are not always repeated. Where two headings read alike, the source gives them in different places.

Columns and labels:
[1] = tested on: catalepsy induced by tetrabenazine; assay: Test 4: inhibition of tetrabenazine-induced catalepsy; format: in vivo; conditions: for TI (Test 4), LD/ED quotient: LD50 / ED of Test 4; for ED50: Mus musculus, sc, read-out: ED, s.c. dose which inhibits the catalepsy induced by tetrabenazine in 50% of the mice (Test 4)
Method: (§1) 4. S.c. dose which inhibits the catalepsy induced by a 110 umole/kg dose of tetrabenazine, in 50% of the mice.
(§2) The acute toxicity data are determined in mice. Tests 2-6 are also carried out in mice. The doses are expressed in micromole/kg. The therapeutical index (TI) is the LD/ED quotient.
(§3) Tests 2, 8, 9 and 10 are suitable for the evaluation of the dopaminerg stimulating effect of the test compounds (potential anti-parkinson agent). Tests 4, 5, 6 and 7 give information about the catecholamine-uptake inhibiting effect (potential antidepressive activity).

[2] = tested on: decrease of the rectal temperature caused by reserpine; assay: Test 6: reserpine-induced decrease of rectal temperature; format: in vivo; conditions: for TI (Test 6), LD/ED quotient: LD50 / ED of Test 6; for minimal effective dose: Mus musculus, sc, read-out: ED, lowest s.c. dose which still hinders the decrease of the rectal temperature caused by reserpine (Test 6)
Method: 6. The lowest s.c. dose which still hinders the decrease of the rectal temperature caused by the administration of a 1,6 umole/kg dose of reserpine.
as §2, §3

[3] = Acute toxicity, s.c., LD50; design: species or system mice; conditions: mouse, in vivo, sc, mice, 96 hour observation
Method: as §2

[4] = tested on: blood pressure and nictitating membrane; assay: Test 7: blood pressure and nictitating membrane effect; format: in vivo; conditions: Felis catus, iv, cats; ">" = inactive in the given dose; read-out: Lowest i.v. dose which still increases the blood pressure and nictitating membrane effect (Test 7)
Method: (§4) Tests 7-10 are carried out in cats and rats, the doses are expressed in micromole/kg.
as §3

[5] = tested on: catalepsy induced by Haloperidol / tetrabenazine; assay: Comparison of anti-haloperidol (Test 2) and anti-tetrabenazine (Test 4) activity; format: in vivo, mice; conditions: for Quotient of the ED values of Columns 2 and 4: ED Test 2 (haloperidol) : ED Test 4 (tetrabenazine)
Method: (§5) 2. S.c. dose which inhibits the catalepsy induced by a 13 umole/kg dose of Haloperidol, in 50% of the mice.
as §1, §2
On comparing the dopaminerg type anti-haloperidol test and the anti-tetrabenazine activity being characteristic of the antidepressive effect the following can be stated:
The quotient of the ED values of Columns 2 and 4 is the highest for Compound I (55:13=4.2). […] The said quotient is high in the case of Nomifensine (1.6), Compound D (1.8), Compound E (2.7) and Compound F (1.7).

[6] = tested on: catalepsy induced by Haloperidol; assay: Test 2: inhibition of haloperidol-induced catalepsy; format: in vivo; conditions: for TI (Test 2), LD/ED quotient: LD50 / ED of Test 2; for ED50: Mus musculus, sc, read-out: ED, s.c. dose which inhibits the catalepsy induced by Haloperidol in 50% of the mice (Test 2)
Method: as §5, §2, §3

stereotypy = assay: Test 8: induction of stereotypy; format: in vivo; conditions: Rattus norvegicus, sc, rats; ">" = inactive in the given dose; read-out: Lowest s.c. dose which still induces stereotypy (Test 8)
Method: 8. The lowest s.c. dose which still induces stereotypy, in rats.
as §4, §3

[7] = tested on: ptosis induced by tetrabenazine; assay: Test 5: inhibition of tetrabenazine-induced ptosis; format: in vivo; conditions: for TI (Test 5), LD/ED quotient: LD50 / ED of Test 5; for ED50: Mus musculus, sc, read-out: ED, s.c. dose which inhibits the ptosis induced by tetrabenazine in 50% of the mice (Test 5)
Method: 5. S.c. dose which inhibits the ptosis induced by a dose of 79 umole/kg of tetrabenazine, in 50% of the mice.
as §2, §3

spontaneous motility = assay: Test 3: spontaneous motility; format: in vivo; conditions: for TI (Test 3), LD/ED quotient: LD50 / ED of Test 3; for minimal effective dose: Mus musculus, ip
Method: 3. Lowest i.p. dose which still increases or decreases the spontaneous motility of the mice.
as §2
In Test 3 "+=motility increase" and "-=motility decrease."

prolactine level = assay: Test 10: decrease of prolactine level in ovariectomised rats; format: in vivo; conditions: Rattus norvegicus, 96 h, after 4 days treatment with oestradiol 0.073 umole/kg, read-out: Dose which induces a significant decrease of the prolactine level (Test 10)
Method: 10. The dose which induces a significant decrease of the prolactine level after 4 days treatment with a dose of 0.073 umole/kg of oeastradiol, on three weeks earlier ovariectomised rats.
as §4, §3

[8] = Overall comparison with Nomifensine in the pharmacological tests; format: in vivo; conditions: all tests
Method: The pharmacological activity of the compounds of the present invention is determined by the following tests:
as §2, §4

[9] = read-out: ED, lowest i.p. dose which still decreases the spontaneous motility (Test 3, -)

Compound | TI (Test 4), LD/ED quotient [1] | ED50 [1] [µmol/kg] | TI (Test 6), LD/ED quotient [2] | minimal effective dose [2] [µmol/kg] | LD50 at 96 h [3] [µmol/kg] | minimal effective dose [4] [µmol/kg] | Quotient of the ED values of Columns 2 and 4 [5] | TI (Test 2), LD/ED quotient [6] | ED50 [6] [µmol/kg] | minimal effective dose (stereotypy) [µmol/kg] | TI (Test 5), LD/ED quotient [7] | ED50 [7] [µmol/kg] | TI (Test 3), LD/ED quotient (spontaneous motility) | minimal effective dose (spontaneous motility; [9]) [µmol/kg] | minimal effective dose (prolactine level) [µmol/kg] | further results
CN1Cc2c(NC(=O)CN3CCCC3)cccc2C(c2ccccc2)C1 (stereo not shown) [Compound A, 4-phenyl-2-methyl-8-pyrrolidino-acetylamino-1,2,3,4-tetrahydro-isoquinoline-dimaleate] | 11 | 62 | 8 | 86 | 653 | 5.2 | 1,4 | 8 | 86 | 89 | 15 | 43 | 3 | 206 |  | 
CC(C)NCCC(=O)Nc1cccc2c1CN(C)CC2c1ccccc1 (stereo not shown) [Compound B, 4-phenyl-8-[3'-isopropylamino-propionyl-amino]-2-methyl-1,2,3,4-tetrahydroisoquinoline-maleate] | 6 | 321 | 5 | 428 | 1920 | 4.3 | 1,3 | 5 | 428 | > 178 | 7 | 267 | 6 | 342 | 96 | 
CCNCC(=O)Nc1cccc2c1CN(C)CC2c1ccc(Cl)cc1 (stereo not shown) [Compound C, 8-ethylamino-acetyl-amino-4-p-chloro-phenyl-2-methyl-1,2,3,4-tetrahydroisoquinoline-maleate] | 13 | 51 | 62 | 11 | 686 | 1.1 | 1,0 | 13 | 53 | 68 | 49 | 14 | 16 | 42 |  | Activity compared with Nomifensine (in words) [8]: surpasses the activity of Nomifensine in three tests
CCCCNCC(=O)Nc1cccc2c1CN(C)CC2c1ccc(Cl)cc1 (stereo not shown) [Compound D, 8-butyl-amino-acetyl-amino-4-p-chloro-phenyl-2-methyl-1,2,3,4-tetrahydro-isoquinoline-maleate] | 24 | 27 | 64 | 10 | 637 | 1 | 1,8 | 13 | 48 | 64 | 82 | 7.8 | < 16 |  | 36 | Therapeutical index in the anti-reserpine test compared with Nomifensine (in words) ([2]; anti-reserpine test): more favourable therapeutical index; minimal effective dose (spontaneous motility; read-out: ED, lowest i.p. dose which still increases or decreases the spontaneous motility (Test 3, no sign)): > 40 µmol/kg
CCCCNC(=O)Nc1cccc2c1CN(C)CC2c1ccc(Cl)cc1 (stereo not shown) [Compound E, 8-n-butyl-carbamoyl-amino-4-p-chloro-phenyl-2-methyl-1,2,3,4-tetrahydro-isoquinoline-maleate] | > 23 | 90 |  | > 205 | > 2050 | 6.1 | 2,7 | > 8 | 246 | 275 | > 66 | 31 | > 66 | 31 | 143 | 
CCCCNC(=O)Nc1cccc2c1CN(C)CC2c1ccc(C)cc1 (stereo not shown) [Compound F, 2-methyl-8-n-butyl-carbamoyl-amino-4-p-tolyl-1,2,3,4-tetrahydro-isoquinoline-maleate] | > 20 | 128 | > 30 | 86 | > 2570 | > 11 | > 1,7 and 1.7 | > 12 | > 214 | 178 | > 80 | 32 | > 60 | 43 | 107 | 
CCCCNCC(=O)Nc1cccc2c1CN(C)CC2c1ccc(C)cc1 (stereo not shown) [Compound G, 8-butylamino-acetyl-amino-2-methyl-4-p-tolyl-1,2,3,4-tetrahydro-isoquinoline-maleate] | 9 | 71 | 32 | 21 | 664 | 2.1 | 0,4 | 23 | 29 | 108 | 133 | 5 | 66 | 10 |  | Activity compared with Nomifensine (in words) [8]: very high activity; Therapeutical index (in words) [8]: good therapeutical index; Antidepressant versus antiparkinson profile (in words) ([5]; from quotient ED2:ED4): stronger anti-dopamine, anti-parkinsone activity
CN1Cc2c(N)cccc2C(c2ccccc2)C1 (stereo not shown) [Nomifensine, 8-amino-4-phenyl-2-methyl-1,2,3,4-tetrahydro-isoquinoline, reference compound] | 30 | 37 | 40 | 28 | 1130 | 1.4 | 1,6 | 20 | 56 | 23 | 268 | 4.2 | 40 |  | 28 | Effect on spontaneous motility (in words) (spontaneous motility; mice): increases the spontaneous motility
